Data on seven molecules can be found in US20250296959A1, “B7-H3 TARGETING PEPTIDES AND CONSTRUCTS THEREOF” (Mariana Oncology Inc., priority 2024, published 2025).

Experiment [1] has as its system Calu-6 cell line. Kind of experiment: Cell associated (bound) fraction of [177Lu]Lu-labeled peptide in Calu-6 cells. It counts as cell-based, Human. The note with it: 1 hour, 37° C. The gist of the method:
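Detached B7-H3-expressing human lung cancer cells at 5 million/mL were exposed for 1 hour at 37 °C to 0.8 μCi of the 177Lu-labelled peptide, which was formulated in 1% PBSA after labelling at 80 °C, pH ~5. Supernatant and two cold washes counted as unbound, and resuspended cells gamma-counted as the cell-associated fraction.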

The subject of experiment [2] is Calu-6 cell line. The experiment can be described thus: Net internalization of [177Lu]Lu-labeled peptide in Calu-6 cells. It counts as cell-based, Human. The settings on record: 1 hour, 37° C., glycine pH 2.5 acid wash. In short, it runs like this: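 Calu-6 cells, human non-engineered lung cancer expressing B7-H3, resuspended in 1% PBSA at 5 million cells/mL and incubated with the 177Lu-labeled conjugate (labeled at 80 °C, pH ~5, RP-HPLC checked). Gamma counting of the bound fraction, then of the pellet after two glycine pH 2.5 acid strips and NaOH lysis, gives internalized activity.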

Experiment [3] addresses T1, human 4lg B7-H3 (Homo sapiens, UniProt Q5ZPR3).
T1 sequence (Q5ZPR3 29-534): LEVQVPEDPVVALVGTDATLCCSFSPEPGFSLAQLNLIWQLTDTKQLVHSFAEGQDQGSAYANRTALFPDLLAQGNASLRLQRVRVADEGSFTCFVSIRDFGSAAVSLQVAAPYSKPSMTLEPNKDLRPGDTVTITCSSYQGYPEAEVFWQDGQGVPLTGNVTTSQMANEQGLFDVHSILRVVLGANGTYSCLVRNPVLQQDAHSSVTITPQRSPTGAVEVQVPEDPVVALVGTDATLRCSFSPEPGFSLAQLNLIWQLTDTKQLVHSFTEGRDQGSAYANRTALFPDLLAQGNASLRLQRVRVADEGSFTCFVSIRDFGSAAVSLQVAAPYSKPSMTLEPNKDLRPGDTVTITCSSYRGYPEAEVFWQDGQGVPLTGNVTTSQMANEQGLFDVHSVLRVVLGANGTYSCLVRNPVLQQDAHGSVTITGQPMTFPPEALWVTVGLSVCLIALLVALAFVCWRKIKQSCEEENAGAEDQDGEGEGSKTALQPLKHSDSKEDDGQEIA
The experiment can be described thus: Affinity determination by surface plasmon resonance (SPR) to 4Ig B7-H3. The note with it: 4Ig B7-H3. (In SPR one partner is held on a chip, and binding of the other changes the refractive index at the surface.)

Where [4] appears, read: SPR KD—25° C., 25° C. flow cell temperature.
The mark [5] stands for this setting: read-out: SPR KD—37° C., 37° C. flow cell temperature.

What is called Kd is the concentration at which binding is half-saturated.

Read-outs that look alike come from different tables or passages of the source. Starred links: 1 amine or outer side, 2 acyl side, 3 side chain; linkers in the order of their positions; H or OH if unused. Positions of bridges follow the written chain, without caps; N, C: chain ends. Non-standard residues stand in square brackets, D forms with d. Residues, ends and D or L forms follow the SMILES beside them. Groups on a side chain read outwards from the residue. *: point of attachment. X2 = O=C(O)CN1CCN(CC(=O)O)CCN(CC(=O)NCCOCCOCCOCCOCC(=O)*)CCN(CC(=O)O)CC1; Ala(piperidin-4-yl) = O=C([C@H](CC1CCN([*:3])CC1)N[*:1])[*:2]; DOTA = O=C(O)CN1CCN(CC(=O)O)CCN(CC(=O)*)CCN(CC(=O)O)CC1; Trp(5-F) = N[C@@H](Cc1c[nH]c2ccc(F)cc12)C(=O)O; X1 = C[C@@H](c1ccccc1)[C@H](N[*:1])C(=O)[*:2]; γGlu = O=C(O)[C@H](CCC(=O)[*:2])N[*:1]; 1Nal = N[C@@H](Cc1cccc2ccccc12)C(=O)O; Ala(4-THP) = N[C@@H](CC1CCOCC1)C(=O)O; Val(3-OH) = CC(C)(O)[C@H](N)C(=O)O; 4Pal = N[C@@H](Cc1ccncc1)C(=O)O; Chg = N[C@H](C(=O)O)C1CCCCC1; PEG4 = NCCOCCOCCOCCOCCC(=O)O; Tle = CC(C)(C)[C@H](N)C(=O)O; hLeu = CC(C)CC[C@H](N)C(=O)O

Consider `CC(=O)N[C@@H](CCC(C)C)C(=O)N[C@@H](Cc1ccc(O)cc1)C(=O)N[C@H]1CSSC[C@@H](C(=O)N[C@@H](Cc2c[nH]c3ccc(F)cc23)C(=O)N[C@@H](Cc2ccccc2)C(=O)N[C@H](C(=O)N[C@H](CCCCNC(=O)COCCOCCOCCOCCNC(=O)CN2CCN(CC(=O)O)CCN(CC(=O)O)CCN(CC(=O)O)CC2)C(=O)O)C(C)(C)O)NC(=O)[C@H](Cc2ccc(O)cc2)NC(=O)[C@H](C(C)C)NC(=O)[C@H](CC(=O)O)NC(=O)[C@H](CC2CCOCC2)NC(=O)[C@H](CCCCN)NC(=O)CNC(=O)[C@H](C(C)(C)C)NC1=O` [compound 310, Ac-hLeu-Y-C-Tbg-G-K-ThpA-D-V-Y-C-5FW-F-hydroxyVal-dLys(PEG4-DOTA)-COOH] (Ac-[hLeu]YC[Tle]GK[Ala(4-THP)]DVYC[Trp(5-F)]F[Val(3-OH)][dK](X2)-OH; disulfide 3-11), for which the “% cell associated fraction” value in experiment [1] was “C (%>50)”. In addition, the “% net internalization” value in experiment [2] is given as “B (25<%≤50)”. Also, the Kd is < 1 nM in experiment [3] (setting [4]) and < 1 nM in experiment [3] (SPR KD—37° C., 37° C. flow cell temperature).

Take `CC(=O)N[C@@H](CCC(C)C)C(=O)N[C@@H](Cc1ccc(O)cc1)C(=O)N[C@H]1CSSC[C@@H](C(=O)N[C@@H](Cc2cccc3ccccc23)C(=O)N[C@@H](Cc2ccccc2)C(=O)N2CCC[C@H]2C(N)=O)NC(=O)[C@H](Cc2ccc(O)cc2)NC(=O)[C@H](C(C)C)NC(=O)[C@H](CC(=O)O)NC(=O)[C@H](Cc2ccncc2)NC(=O)[C@H](CCCCNC(=O)CC[C@H](NC(=O)CN2CCN(CC(=O)O)CCN(CC(=O)O)CCN(CC(=O)O)CC2)C(=O)O)NC(=O)CNC(=O)[C@H](C(C)(C)C)NC1=O` [compound 252, Ac-hLeu-Y-C-Tbg-G-Lys(gE-DOTA)-4PyA-D-V-Y-C-1Nal-F-Pro-CONH2] (Ac-[hLeu]YC[Tle]GK([γGlu-DOTA])[4Pal]DVYC[1Nal]FP-NH2; disulfide 3-11): in experiment [1], the “% cell associated fraction” value is on record as “B (25<%≤50)”. The “% net internalization” value in experiment [2] was “A (%≤25)”. In experiment [3] (setting [4]), this molecule came in with a Kd of 1 to 10 nM.

Take `CC(=O)N[C@@H](CCC(C)C)C(=O)N[C@@H](Cc1ccc(O)cc1)C(=O)N[C@H]1CSSC[C@@H](C(=O)N[C@@H](Cc2c[nH]c3ccc(F)cc23)C(=O)N[C@@H](Cc2ccccc2)C(=O)N[C@H](C(=O)N[C@H](CO)C(N)=O)C(C)(C)O)NC(=O)[C@H](Cc2ccc(O)cc2)NC(=O)[C@H](C(C)C)NC(=O)[C@H](CC(=O)O)NC(=O)[C@H](CC2CCOCC2)NC(=O)[C@H](CC2CCN(C(=O)CCOCCOCCOCCOCCNC(=O)CN3CCN(CC(=O)O)CCN(CC(=O)O)CCN(CC(=O)O)CC3)CC2)NC(=O)CNC(=O)[C@H](C(C)(C)C)NC1=O` [compound 407, Ac-hLeu-Y-C-Tbg-G-Pip(PEG4-DOTA)Ala-ThpA-D-V-Y-C-5FW-F-hydroxyVal-dSer-CONH2] (Ac-[hLeu]YC[Tle]G[Ala(piperidin-4-yl)]([PEG4-DOTA])[Ala(4-THP)]DVYC[Trp(5-F)]F[Val(3-OH)][dS]-NH2; disulfide 3-11): the “% cell associated fraction” value in experiment [1] was “C (%>50)”. Besides, the “% net internalization” value in experiment [2] is “A (%≤25)”. Besides, the dissociation constant (Kd) in experiment [3] (setting [5]) is < 1 nM.

As to `CC(=O)N[C@@H](CCC(C)C)C(=O)N[C@@H](Cc1ccc(O)cc1)C(=O)N[C@H]1CSSC[C@@H](C(=O)N[C@@H](Cc2c[nH]c3ccc(F)cc23)C(=O)N[C@H](C(=O)N[C@H](C(=O)N[C@H](CCC(=O)O)C(N)=O)C(C)(C)O)[C@@H](C)c2ccccc2)NC(=O)[C@H](Cc2ccc(O)cc2)NC(=O)[C@H](C(C)C)NC(=O)[C@H](CC(=O)O)NC(=O)[C@H](CC2CCN(C(=O)CCOCCOCCOCCOCCNC(=O)CN3CCN(CC(=O)O)CCN(CC(=O)O)CCN(CC(=O)O)CC3)CC2)NC(=O)[C@H](CC2CCNCC2)NC(=O)CNC(=O)[C@H](C(C)(C)C)NC1=O` [compound 495, Ac-hLeu-Y-C-Tbg-G-PipAla-Pip(PEG4-DOTA)Ala-D-V-Y-C-5FW-[(2S, 3S)beta-Me-Phe]-hydroxyVal-dGlu-CONH2] (Ac-[hLeu]YC[Tle]G[Ala(piperidin-4-yl)][Ala(piperidin-4-yl)]([PEG4-DOTA])DVYC[Trp(5-F)][X1][Val(3-OH)][dE]-NH2; disulfide 3-11), the “% cell associated fraction” value in experiment [1] is recorded as “C (%>50)”. Also, the “% net internalization” value in experiment [2] was “A (%≤25)”. The Kd in experiment [3] (setting [5]) was < 1 nM.

Turning to `CC(=O)N[C@@H](CCC(C)C)C(=O)N[C@@H](Cc1ccc(O)cc1)C(=O)N[C@H]1CSSC[C@@H](C(=O)N[C@@H](Cc2c[nH]c3ccc(F)cc23)C(=O)N[C@@H](Cc2ccccc2)C(=O)N[C@H](C(=O)N[C@H](CCCCNC(=O)CN2CCN(CC(=O)O)CCN(CC(=O)O)CCN(CC(=O)O)CC2)C(N)=O)[C@@H](C)O)NC(=O)[C@H](Cc2ccc(O)cc2)NC(=O)[C@H](C2CCCCC2)NC(=O)[C@H](CC(=O)O)NC(=O)[C@H](Cc2ccncc2)NC(=O)[C@H](CCCCN)NC(=O)CNC(=O)[C@H](C(C)C)NC1=O` [compound 190, Ac-hLeu-Y-C-V-G-K-4PyA-D-ChG-Y-C-5FW-F-Thr-dLys(DOTA)-CONH2] (Ac-[hLeu]YCVGK[4Pal]D[Chg]YC[Trp(5-F)]FT[dK](DOTA)-NH2; disulfide 3-11), in experiment [1], the “% cell associated fraction” value was “C (%>50)”. Also, in experiment [2], the “% net internalization” value was “B (25<%≤50)”. Also, the Kd in experiment [3] (read-out: SPR KD—25° C., 25° C. flow cell temperature) is < 1 nM.

As to `CC(=O)N[C@@H](CCC(C)C)C(=O)N[C@@H](Cc1ccc(O)cc1)C(=O)N[C@H]1CSSC[C@@H](C(=O)N[C@@H](Cc2c[nH]c3ccc(F)cc23)C(=O)N[C@H](C(=O)N[C@H](C(=O)N[C@H](CCCCNC(=O)[C@@H](CCC(=O)O)NC(=O)CN2CCN(CC(=O)O)CCN(CC(=O)O)CCN(CC(=O)O)CC2)C(=O)O)C(C)(C)O)[C@@H](C)c2ccccc2)NC(=O)[C@H](Cc2ccc(O)cc2)NC(=O)[C@H](C(C)C)NC(=O)[C@H](CC(=O)O)NC(=O)[C@H](CC2CCOCC2)NC(=O)[C@H](CC2CCNCC2)NC(=O)CNC(=O)[C@H](C(C)(C)C)NC1=O` [compound 501, Ac-hLeu-Y-C-Tbg-G-PipAla-ThpA-D-V-Y-C-5FW-[(2S, 3S)beta-Me-Phe]-hydroxyVal-dLys(dGlu-DOTA)-COOH] (Ac-[hLeu]YC[Tle]G[Ala(piperidin-4-yl)][Ala(4-THP)]DVYC[Trp(5-F)][X1][Val(3-OH)][dK]([dE-DOTA])-OH; disulfide 3-11), the “% cell associated fraction” value in experiment [1] is given as “C (%>50)”. Moreover, in experiment [2], the “% net internalization” value is on record as “B (25<%≤50)”. Besides, the Kd in experiment [3] (setting [5]) is < 1 nM.

For `CC(=O)N[C@@H](CCC(C)C)C(=O)N[C@@H](Cc1ccc(O)cc1)C(=O)N[C@H]1CSSC[C@@H](C(=O)N[C@@H](Cc2cccc3ccccc23)C(=O)N[C@@H](Cc2ccccc2)C(=O)N2CCC[C@H]2C(N)=O)NC(=O)[C@H](Cc2ccc(O)cc2)NC(=O)[C@H](C(C)C)NC(=O)[C@H](CC(=O)O)NC(=O)[C@H](Cc2ccncc2)NC(=O)[C@H](CCCCNC(=O)COCCOCCOCCOCCNC(=O)CN2CCN(CC(=O)O)CCN(CC(=O)O)CCN(CC(=O)O)CC2)NC(=O)CNC(=O)[C@H](C(C)(C)C)NC1=O` [compound 256, Ac-hLeu-Y-C-Tbg-G-Lys(PEG4-DOTA)-4PyA-D-V-Y-C-1Nal-F-Pro-CONH2] (Ac-[hLeu]YC[Tle]GK(X2)[4Pal]DVYC[1Nal]FP-NH2; disulfide 3-11), in experiment [1], the “% cell associated fraction” value is recorded as “A (%≤25)”. In addition, the “% net internalization” value in experiment [2] was “A (%≤25)”. The same molecule had an equilibrium dissociation constant (Kd) in experiment [3] (setting [4]) of 1 to 10 nM.
